The target in the assay is recombinant human angiotensin-II receptor subtype 2 (hAT2R) (Homo sapiens (Human), UniProt P50052). Briefly: Competitive radioligand binding assay (SPA), hAT2R HEK293 membranes. Conditions: [125I]-Tyr4-Angiotensin-II, read-out: AT2R Ki. The method, then: Compound Solubilization Test and reference compounds were received as dry powder reagents, weighed, and solubilized in 100% DMSO to generate a working stock concentration of 10 mM. Membrane Preparation Protocol (hAT2R HEK293 and rAT2R HEK293) hAT2R membranes were prepared from human embryonic kidney (HEK293) cells which were stably transfected with recombinant human angiotensin-II receptor subtype 2 (hAT2R). Cells from the stable cell lines were expanded in tissue culture flasks to generate a large population of cells; cell pellet (>1 gm), and these cell pellets were stored frozen prior to initiating this membrane isolation procedure for each receptor isoform. Frozen cell pellets were thawed in ice-cold homogenization/resuspension buffer (50 mM Tris-HCl, pH 7.5) containing one Complete© protease inhibitor tablet with EDTA (Roche Diagnostics) per 50 mL buffer, and cell pellet was resuspended at a ratio of 10 mL homogenization buffer to gram of starting cell pellet. Cell suspension was homogenized with an overhead motor-driven Teflon-glass homogenizer using 15 to 20 strokes, followed by centrifugation at 1100×g for 10 minutes at 4° C. The supernatant was saved on ice, pellets were homogenized as before, and centrifuged at 1100×g for 10 minutes at 4° C. Both supernatants were combined and subsequently centrifuged at 35,000×g for 60 minutes at 4° C. The final centrifugation pellet (pellet 2) containing the isolated membranes was resuspended in buffer (4 to 5 mL/g of starting cell paste) containing protease inhibitors and quick frozen in liquid nitrogen prior to storage at -80° C. Protein concentration was determined using a BCA kit (ThermoScientific, Inc.) with bovine serum albumin (BSA) as standard. […] The assays were performed with a scintillation proximity assay (SPA) method using polyvinyltoluene (PVT) wheat germ agglutinin-coupled SPA beads (Perkin Elmer Cat. #RPNQ0001). Assay buffer containing BSA (50 mM Tris-HCl, pH 7.5, 150 mM NaCl, 0.1% w/v fatty-acid free BSA) was used for preparing radioligand, membrane and SPA bead reagent dilution to working stock concentrations. Reference control and test compounds were diluted to obtain ten-point concentration response curves using a four-fold serial dilution protocol onto assay plates, dispensed acoustically from DMSO stock using automated ECHO instrument technology (Labcyte, Inc.). Concentration response curves were routinely generated with the highest final assay concentration for the reference angiotensin-II control at 50 nM, and the highest final assay concentration for the test compounds at 50 μM. […] The hAT2R membrane was combined with PVT-WGA SPA beads to obtain a final assay concentration of 0.25 μg/well hAT2R membrane+0.1 mg/well PVT-WGA SPA bead. And the hAT1R membrane PVT-WGA SPA bead final concentrations was 0.5 μg/well hAT1R membrane+0.1 mg/well PVT-WGA SPA bead. […] For all assays, radioligand addition was followed by the addition of membrane-SPA bead mixture, i.e., the hAT2R membrane-SPA bead mixture (30 μL), the rAT2R membrane-SPA bead mixture, or the AT1R membrane-SPA bead mixture (30 μL) into the assay plate. All dispensing steps were added using a Multiflo FX (Biotek, Inc.) bulk dispensing instrument. After reagent addition steps, assay plates were sealed, and plate contents mixed for one minute on a benchtop micro-plate shaker. Following a 10-hour incubation at room temperature to allow for bead settling and radioligand binding, bound radioactivity was quantitated using a Microbeta Trilux scintillation counter (Perkin Elmer) and expressed as counts per minute (CPM). The unlabeled angiotensin-II control was included on each plate as an experimental assay reference. […] Data Analysis Procedures Compounds were tested in a 10-point concentration response curve (CRC) format, with each plate containing the positive control angiotensin-II positive reference compound, and experimental compounds.
recombinant human angiotensin-II receptor subtype 2 (hAT2R), sequence (P50052 whole entry): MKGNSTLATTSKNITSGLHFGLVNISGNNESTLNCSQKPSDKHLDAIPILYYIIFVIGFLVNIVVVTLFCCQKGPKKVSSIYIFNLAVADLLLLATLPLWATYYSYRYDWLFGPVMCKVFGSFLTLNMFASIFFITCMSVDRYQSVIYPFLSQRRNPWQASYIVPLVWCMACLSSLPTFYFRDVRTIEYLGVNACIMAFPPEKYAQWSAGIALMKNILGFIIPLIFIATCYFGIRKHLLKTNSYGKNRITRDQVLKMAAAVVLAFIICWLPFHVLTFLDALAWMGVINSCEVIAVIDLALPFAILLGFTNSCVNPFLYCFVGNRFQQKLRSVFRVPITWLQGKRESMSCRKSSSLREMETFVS

Broadly, the Ki is the dissociation constant of the complex between target and ligand, obtained from inhibition or displacement.

On to `CCN(C(=O)N1CCC(CC(=O)N(c2ccccc2)C2CCCCC2)(C(=O)O)CC1)c1ccc(F)cc1` [Example 15, 4-[2-(N-cyclohexylanilino)-2-oxo-ethyl]-1-[ethyl-(4-fluorophenyl)carbamoyl]piperidine-4-carboxylic acid], for which the Ki is 1.69 nM.

With `O=C(N1CCC(CC(=O)N(c2cccc(F)c2)c2ccccc2F)(C(=O)O)CC1)N1CCc2ccccc21` [Example 60, 4-[2-(3-fluoro-N-(2-fluorophenyl)anilino)-2-oxo-ethyl]-1-(indoline-1-carbonyl)piperidine-4-carboxylic acid], the Ki is 3.18 nM.

On to `N#Cc1ccc2c(c1)N(C(=O)N1CCC(CC(=O)N(c3ccccc3)C3CCCCC3)(C(=O)O)CC1)CC2` [Example 33, 1-(6-cyanoindoline-1-carbonyl)-4-[2-(N-cyclohexylanilino)-2-oxo-ethyl]piperidine-4-carboxylic acid], for which the Ki is 1.94 nM.

On to `CC(C)(C)OC(=O)N1CCC(CC(=O)N(c2ccccc2)C2CCCC(F)(F)C2)(C(=O)O)CC1` (single isomer, unassigned) [compound 42], for which the Ki was found to be 3.94 nM.

Turning to `CN(C(=O)N1CCC(CC(=O)N(c2ccccc2)C2CCOCC2)(C(=O)O)CC1)c1ccc(C2CC2)cc1` [Example 26, 1-[(4-cyclopropylphenyl)-methyl-carbamoyl]-4-[2-oxo-2-(N-tetrahydropyran-4-ylanilino)ethyl]piperidine-4-carboxylic acid], the Ki turned out to be 5.39 nM.

On to `O=C(N1CCC(CC(=O)N(c2ccccc2)C2CCCC(F)(F)C2)(C(=O)O)CC1)N1CCc2cccc(F)c21` (racemic) [Example 73, 4-[2-(N-(3,3-difluorocyclohexyl)anilino)-2-oxo-ethyl]-1-(7-fluoroindoline-1-carbonyl)piperidine-4-carboxylic acid], for which the Ki stood at 3.03 nM.

As to `COc1ccc(N(C)C(=O)N2CCC(CC(=O)N(c3ccccc3)C3CCCCC3)(C(=O)O)CC2)cc1` [Example 14, 4-[2-(N-cyclohexylanilino)-2-oxo-ethyl]-1-[(4-methoxyphenyl)-methyl-carbamoyl]piperidine-4-carboxylic acid], the Ki was 2.58 nM.

On to `CC1CCCC(N(C(=O)CC2(C(=O)O)CCN(C(=O)N(C)c3ccc(F)cc3)CC2)c2ccccc2)C1` (centres unmarked) [compound 22, 1-[(4-fluorophenyl)-methyl-carbamoyl]-4-[2-(N-(3-methyl-cyclohexyl)anilino)-2-oxo-ethyl]piperidine-4-carboxylic acid], for which the Ki came out at 0.573 nM.

`CN(C(=O)N1CCC(CC(=O)N(c2ccccc2F)c2ccccc2F)(C(=O)O)CC1)c1ccccc1` [Example 46, 4-[2-(2-fluoro-N-(2-fluorophenyl)anilino)-2-oxo-ethyl]-1-[methyl(phenyl)carbamoyl]piperidine-4-carboxylic acid]: the Ki is 0.409 nM.

Turning to `CN(C(=O)N1CCC(CC(=O)N(c2ccccc2)c2ccc(Cl)cc2)(C(=O)O)CC1)c1ccc(F)cc1` [compound 31, -[2-(N-(4-chlorophenyl)anilino)-2-oxo-ethyl]-1-[(4-fluorophenyl)-methyl-carbamoyl]piperidine-4-carboxylic acid], the Ki was 1.89 nM.

Regarding `CC(C(=O)N1CCC(CC(=O)N(c2ccccc2)C2CCCC(F)(F)C2)(C(=O)O)CC1)c1ccc(F)cc1` (racemic) [Example 62, 4-[2-(N-(3,3-difluorocyclohexyl)anilino)-2-oxo-ethyl]-1-[2-(4-fluorophenyl)propanoyl]piperidine-4-carboxylic acid], the Ki is 1.04 nM.

As to `O=C(N1CCC(CC(=O)N(c2ccccc2)C2CCCC(F)(F)C2)(C(=O)O)CC1)N1CCc2ccccc21` (single isomer, unassigned) [Example 35A, 4-[2-(N-(3,3-difluorocyclohexyl)anilino)-2-oxo-ethyl]-1-(indoline-1-carbonyl)piperidine-4-carboxylic acid], the Ki stood at 10.8 nM.

Consider `O=C(N1CCC(CC(=O)N(c2ccc(F)cc2)c2ccccc2F)(C(=O)O)CC1)N1CCc2ccccc21` [Example 61, 4-[2-(4-fluoro-N-(2-fluorophenyl)anilino)-2-oxo-ethyl]-1-(indoline-1-carbonyl)piperidine-4-carboxylic acid], for which the Ki was 3.73 nM.

As to `CN(C(=O)N1CCC(CC(=O)N(c2ccccc2)c2ccccc2F)(C(=O)O)CC1)C(C1CC1)C1CC1` [Example 55, 1-[dicyclopropylmethyl(methyl)carbamoyl]-4-[2-(N-(2-fluorophenyl)anilino)-2-oxo-ethyl]piperidine-4-carboxylic acid], the Ki came out at 3.11 nM.

Take `Cc1cccc(N(C(=O)CC2(C(=O)O)CCN(C(=O)N(C)c3ccc(F)cc3)CC2)c2ccccc2)c1` [compound 23, 1-[(4-fluorophenyl)-methyl-carbamoyl]-4-[2-[N-(m-tolyl)anilino]-2-oxo-ethyl]piperidine-4-carboxylic acid]: the inhibitory constant (Ki) came out at 0.823 nM.

With `CN(C(=O)N1CCC(CC(=O)N(c2ccccc2)C2CCCOC2)(C(=O)O)CC1)c1ccc(F)cc1` (racemic) [Example 41, 1-[(4-fluorophenyl)-methyl-carbamoyl]-4-[2-oxo-2-(N-tetrahydropyran-3-ylanilino)ethyl]piperidine-4-carboxylic acid], the Ki came to 16.6 nM.

For `CN(C(=O)N1CCC(CC(=O)N(c2ccccc2)C2CCC(F)(F)CC2)(C(=O)O)CC1)c1ccc(F)cc1` [Example 8, 4-[2-(N-(4,4-difluorocyclohexyl)anilino)-2-oxo-ethyl]-1-[(4-fluorophenyl)-methyl-carbamoyl]piperidine-4-carboxylic acid], the Ki turned out to be 3.02 nM.

As for `O=C(N1CCC(CC(=O)N(c2ccccc2)C2CCCC(F)(F)C2)(C(=O)O)CC1)N1CCc2ccc(F)cc21` (single isomer, unassigned) [Example 72A, 4-[2-(N-(3,3-difluorocyclohexyl)anilino)-2-oxo-ethyl]-1-(6-fluoroindoline-1-carbonyl)piperidine-4-carboxylic acid], the inhibitory constant (Ki) came out at 8.14 nM.

For the molecule `O=C(N1CCC(CC(=O)N(c2ccccc2)c2cccc(F)c2)(C(=O)O)CC1)N1CCc2ccccc21` [Example 57, 4-[2-(N-(3-fluorophenyl)anilino)-2-oxo-ethyl]-1-(indoline-1-carbonyl)piperidine-4-carboxylic acid], the Ki came to 7.82 nM.

On to `O=C(c1ccc(C2CC2)cc1)N1CCC(CC(=O)N(c2ccccc2)C2CCCC(F)(F)C2)(C(=O)O)CC1` (racemic) [Example 70, 1-(4-cyclopropylbenzoyl)-4-[2-(N-(3,3-difluorocyclohexyl)anilino)-2-oxo-ethyl]piperidine-4-carboxylic acid], for which the Ki stood at 9.39 nM.

For the molecule `COc1cccc(N(C(=O)CC2(C(=O)O)CCN(C(=O)N(C)c3ccc(F)cc3)CC2)c2ccccc2)c1` [compound 25, 1-[(4-fluorophenyl)-methyl-carbamoyl]-4-[2-(N-(3-methoxyphenyl)anilino)-2-oxo-ethyl]piperidine-4-carboxylic acid], the Ki turned out to be 2.7 nM.

With `CN(C(=O)N1CCC(CC(=O)N(c2ccccc2)C2CCCOC2)(C(=O)O)CC1)c1ccc(F)cc1` (single isomer, unassigned) [Example 41A, 1-[(4-fluorophenyl)-methyl-carbamoyl]-4-[2-oxo-2-(N-tetrahydropyran-3-ylanilino)ethyl]piperidine-4-carboxylic acid], the Ki worked out at 8.89 nM.

As to `O=C(CC1(C(=O)O)CCN(C(=O)N(c2ccc(F)cc2)C2CC2)CC1)N(c1ccccc1)C1CCCCC1` [Example 16, 4-[2-(N-cyclohexylanilino)-2-oxo-ethyl]-1-[cyclopropyl-(4-fluorophenyl)carbamoyl]piperidine-4-carboxylic acid], the Ki came out at 1.76 nM.

For the origin of these results see patent publication US12122750B2, “AT2R antagonists and uses thereof” (Eli Lilly and Company, priority 2022, dated 2024).
